Usually IC50 stands for the concentration that inhibits the measured activity by half.

The target in this experiment is Neuropilin-1 (Homo sapiens) (UniProt O14786). In words: NRP-1 b1b2 CendR peptide binding inhibitors, dose response, biochemical, FP and AlphaScreen panel (AID 651650). Particulars: NRP-1 b1b2 / RPARPAR peptide binding, FP or AlphaScreen.
The mark [1] stands for this setting: AlphaScreen, run 1, individual panel run IC50.
[2] abbreviates: FP, run 1, individual panel run IC50.
Setting [3] is: FP, run 2, individual panel run IC50.

Molecules are shown by their SMILES. Active and inactive are the calls of the source.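 Rule for the calls: active = mean IC50 below 20 µM in each of the two panels, so potent in both; inactive = the rest.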

Sequence of Neuropilin-1 (Homo sapiens) (O14786 whole entry, looked up): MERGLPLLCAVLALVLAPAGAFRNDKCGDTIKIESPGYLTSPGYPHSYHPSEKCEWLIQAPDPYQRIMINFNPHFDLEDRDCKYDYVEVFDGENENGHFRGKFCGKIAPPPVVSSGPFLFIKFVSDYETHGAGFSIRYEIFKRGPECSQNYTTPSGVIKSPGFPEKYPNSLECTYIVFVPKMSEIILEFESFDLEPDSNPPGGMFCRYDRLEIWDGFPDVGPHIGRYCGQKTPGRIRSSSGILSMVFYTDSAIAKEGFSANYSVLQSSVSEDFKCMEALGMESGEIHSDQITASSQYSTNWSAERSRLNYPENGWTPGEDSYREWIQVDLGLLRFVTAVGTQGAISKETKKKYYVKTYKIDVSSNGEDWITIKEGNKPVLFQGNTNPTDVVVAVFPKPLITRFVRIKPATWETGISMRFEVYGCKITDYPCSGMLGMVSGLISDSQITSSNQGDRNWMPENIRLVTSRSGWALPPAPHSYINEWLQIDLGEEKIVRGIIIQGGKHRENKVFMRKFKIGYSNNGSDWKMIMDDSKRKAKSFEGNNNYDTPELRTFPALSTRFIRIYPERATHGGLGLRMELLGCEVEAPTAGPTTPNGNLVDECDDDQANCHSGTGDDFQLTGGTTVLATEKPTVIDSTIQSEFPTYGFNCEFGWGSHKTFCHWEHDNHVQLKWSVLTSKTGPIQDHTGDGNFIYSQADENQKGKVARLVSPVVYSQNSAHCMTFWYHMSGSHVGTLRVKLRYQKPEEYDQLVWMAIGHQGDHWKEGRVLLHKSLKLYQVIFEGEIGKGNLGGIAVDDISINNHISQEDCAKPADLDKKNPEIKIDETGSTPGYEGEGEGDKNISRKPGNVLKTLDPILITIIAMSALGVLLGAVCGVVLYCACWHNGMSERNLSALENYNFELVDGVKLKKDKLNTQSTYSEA

Consider `CCC(=O)Nc1nc2nc(-c3ccccc3)cc(-c3ccccc3)n2n1`, for which the IC50 is > 100 µM (inactive) (AlphaScreen, mean of runs); > 100 µM under setting [1]; > 95 µM (inactive) (FP, mean of runs); > 95 µM under setting [2]; > 95 µM under setting [3].
Consider `C=C(C)COc1ccc(-c2[nH]ncc2-c2ccccc2)c(O)c1`, for which the IC50 runs as follows: (AlphaScreen, mean of runs) > 100 µM (inactive); under setting [1], > 100 µM; (FP, mean of runs) > 95 µM (inactive); under setting [2], > 95 µM; under setting [3], > 95 µM.
For the molecule `Cc1ccccc1S(=O)(=O)Nc1nc2ccccc2nc1NCCO`, the IC50 (AlphaScreen, mean of runs) is > 100 µM (inactive); the IC50 under setting [1] is > 100 µM; the IC50 (FP, mean of runs) was > 95 µM (inactive); the IC50 under setting [2] was > 95 µM; the IC50 under setting [3] is > 95 µM.
For `c1ccc2c(c1)CCCN2Cc1nnnn1CC1CCCO1` (stereo not given), the IC50 entry is “inactive” (AlphaScreen, mean of runs) and “inactive” (FP, mean of runs). Also, the IC50 runs as follows: under setting [1], 25.8 µM; under setting [2], 33.9 µM; under setting [3], > 95 µM.
Consider `Cc1cnc(C(=O)OCC(=O)Nc2sc3c(c2C#N)CCC3)cn1`, for which the IC50 (AlphaScreen, mean of runs) is > 100 µM (inactive); the concentration for half-maximal inhibition (IC50) under setting [1] is > 100 µM; the IC50 (FP, mean of runs) is > 95 µM (inactive); the IC50 under setting [2] was > 95 µM; the half-maximal inhibitory concentration (IC50) under setting [3] is > 95 µM.
For the molecule `FC(F)(F)C1CC(c2cccs2)Nc2ncnn21` (stereo not given), the IC50 was > 100 µM (inactive) (AlphaScreen, mean of runs); > 100 µM under setting [1]; > 95 µM (inactive) (FP, mean of runs); > 95 µM under setting [2]; > 95 µM under setting [3].
In the case of `O=C1N[C@H](Cc2c[nH]c3ccccc23)COC(=O)[C@H](Cc2ccc(F)cc2)C/C=C\C[C@H]1CC(=O)N(CCO)Cc1ccccc1`, the concentration for half-maximal inhibition (IC50) by setting is: (AlphaScreen, mean of runs) 15 µM; under setting [1], 15 µM; (FP, mean of runs) > 95 µM (inactive); under setting [2], > 95 µM; under setting [3], > 95 µM.
As for `COC(=O)CCCC1=CC2=CC(=O)C(C)(OC(=O)c3cccs3)C(=O)C2=CN1CCCOC(C)C` (stereo not given), the IC50 was 5.63 µM (AlphaScreen, mean of runs); 5.63 µM under setting [1]; > 95 µM (inactive) (FP, mean of runs); > 95 µM under setting [2]; > 95 µM under setting [3].
Consider `COc1ccccc1COc1ccc2c(C)c(CC(=O)O)c(=O)oc2c1C`, for which the IC50 by setting is: (AlphaScreen, mean of runs) > 100 µM (inactive); under setting [1], > 100 µM; (FP, mean of runs) > 95 µM (inactive); under setting [2], > 95 µM; under setting [3], > 95 µM.
Take `CSc1nc2ccccc2c(=O)n1C1CCOC(C)(C)C1` (stereo not given): the IC50 was > 100 µM (inactive) (AlphaScreen, mean of runs); > 100 µM under setting [1]; > 95 µM (inactive) (FP, mean of runs); > 95 µM under setting [2]; > 95 µM under setting [3].
As to `Cc1cc(S(=O)(=O)NC2CCCCC2)ccc1OCC(=O)N1CCOCC1`, the IC50 by setting is: (AlphaScreen, mean of runs) 15.2 µM; under setting [1], 15.2 µM; (FP, mean of runs) > 95 µM (inactive); under setting [2], > 95 µM; under setting [3], > 95 µM.
Consider `CCOC(=O)c1c(=O)n(O)c2ccc(OC)cc2[n+]1[O-]`, for which the IC50 (AlphaScreen, mean of runs) was > 100 µM (inactive); the concentration for half-maximal inhibition (IC50) under setting [1] is > 100 µM; the IC50 (FP, mean of runs) was > 95 µM (inactive); the half-inhibitory concentration (IC50) under setting [2] was > 95 µM; the 50% inhibitory concentration (IC50) under setting [3] is > 95 µM.
For `CC(C)(C)C(=O)COC(=O)c1cc(-c2ccncc2)nc2ccccc12`, the IC50 is > 100 µM (inactive) (AlphaScreen, mean of runs); > 100 µM under setting [1]; > 95 µM under setting [2]; 40.5 µM under setting [3]. For the setting “FP, mean of runs”, the IC50 entry is “inactive”.
The corresponding values for `Cc1occc1C(=O)N1N=C(C2CC2)CC1(O)C(F)(F)F` (stereo not given) are > 100 µM (inactive), > 100 µM, > 95 µM, > 95 µM and > 95 µM (inactive).
The corresponding values for `COC(=O)c1ccn(C(=O)c2ccc(Cl)cc2)n1` are > 100 µM (inactive), > 100 µM, > 95 µM, > 95 µM and > 95 µM (inactive).
The matching figures for `O=C(CSc1nc2ccccc2n1Cc1ccccc1Cl)N/N=C/c1ccccc1C(=O)O`: “inactive”, 39.2 µM, > 95 µM, > 95 µM and > 95 µM (inactive).
Regarding `O=C(NNC(=O)C1CCN(c2ncccn2)CC1)c1ccc(F)cc1`, the IC50 (AlphaScreen, mean of runs) was > 100 µM (inactive); the IC50 under setting [1] is > 100 µM; the IC50 (FP, mean of runs) was > 95 µM (inactive); the IC50 under setting [2] was > 95 µM; the 50% inhibitory concentration (IC50) under setting [3] was > 95 µM.
For the molecule `O=C1CCCN1CCCNc1nc(NCc2cccs2)nc2ccsc12`, the IC50 entry (AlphaScreen, mean of runs) is “inactive”. Moreover, the IC50 was 28 µM under setting [1]; > 95 µM (inactive) (FP, mean of runs); > 95 µM under setting [2]; > 95 µM under setting [3].
Consider `Cc1[nH]n(-c2ccccc2)c(=S)c1C=Nc1cccc([N+](=O)[O-])c1`, for which the IC50 (AlphaScreen, mean of runs) was > 100 µM (inactive); the IC50 under setting [1] is > 100 µM; the IC50 (FP, mean of runs) is > 95 µM (inactive); the half-inhibitory concentration (IC50) under setting [2] is > 95 µM; the concentration for half-maximal inhibition (IC50) under setting [3] is > 95 µM.
On to `COc1ccc(Cn2c(C3CC3)nc3ccc(NC(=O)c4cccnc4)cc3c2=O)cc1`, for which, for the setting “AlphaScreen, mean of runs”, the IC50 entry is “inactive”. For the same molecule, the IC50 by setting is: under setting [1], 31.7 µM; (FP, mean of runs) > 95 µM (inactive); under setting [2], > 95 µM; under setting [3], > 95 µM.
Consider `CNC(=O)NC(=O)C(C)OC(=O)c1c(C)noc1C` (stereo not given), for which the IC50 result (AlphaScreen, mean of runs) was “inactive”. In addition, the concentration for half-maximal inhibition (IC50) runs as follows: under setting [1], 82 µM; (FP, mean of runs) > 95 µM (inactive); under setting [2], > 95 µM; under setting [3], > 95 µM.
Turning to `NC(=O)C1CCCN(C(=O)c2ccc3nc(Cc4cccc(Cl)c4)oc3c2)C1` (stereo not given), the 50% inhibitory concentration (IC50) runs as follows: (AlphaScreen, mean of runs) 10.7 µM; under setting [1], 10.7 µM; (FP, mean of runs) > 95 µM (inactive); under setting [2], > 95 µM; under setting [3], > 95 µM.
In the case of `O=C(Cc1ccccc1Cl)N1CCOCC1`, the IC50 reads like this: (AlphaScreen, mean of runs) > 100 µM (inactive); under setting [1], > 100 µM; (FP, mean of runs) > 95 µM (inactive); under setting [2], > 95 µM; under setting [3], > 95 µM.
As for `CCCS(=O)(=O)N1CCC(Cc2ccc(OC)cc2)(C(=O)OCC)CC1`, the IC50 by setting is: (AlphaScreen, mean of runs) > 100 µM (inactive); under setting [1], > 100 µM; (FP, mean of runs) > 95 µM (inactive); under setting [2], > 95 µM; under setting [3], > 95 µM.
As for `CCOc1ccc(C2CC(c3ccc(CC)cc3)n3nc(N)nc3N2)cc1` (stereo not given), the IC50 reads like this: (AlphaScreen, mean of runs) > 100 µM (inactive); under setting [1], > 100 µM; (FP, mean of runs) > 95 µM (inactive); under setting [2], > 95 µM; under setting [3], > 95 µM.
For `Cc1ccc(C(=O)N/C(=C\c2ccc(-c3ccccc3[N+](=O)[O-])o2)C(=O)NCCCN2CCOCC2)cc1`, the IC50 (AlphaScreen, mean of runs) is > 100 µM (inactive); the IC50 under setting [1] was > 100 µM; the IC50 (FP, mean of runs) was > 95 µM (inactive); the IC50 under setting [2] was > 95 µM; the concentration for half-maximal inhibition (IC50) under setting [3] was > 95 µM.
Regarding `Cc1ccc(NC(=S)N2CCN(Cc3ccccc3)CC2)cc1`, the IC50 reads like this: (AlphaScreen, mean of runs) > 100 µM (inactive); under setting [1], > 100 µM; (FP, mean of runs) > 95 µM (inactive); under setting [2], > 95 µM; under setting [3], > 95 µM.
For `Cc1cc(C)n(-c2nnc3n2N=C(c2c[nH]c4ccccc24)CS3)n1`, the IC50 is > 100 µM (inactive) (AlphaScreen, mean of runs); > 100 µM under setting [1]; > 95 µM (inactive) (FP, mean of runs); > 95 µM under setting [2]; > 95 µM under setting [3].
`COc1cccc(-c2ccc3c(c2)N(Cc2ccccc2OC)C(=O)C(C)S3)c1` (stereo not given): the IC50 (AlphaScreen, mean of runs) was > 100 µM (inactive); the half-inhibitory concentration (IC50) under setting [1] is > 100 µM; the IC50 (FP, mean of runs) was > 95 µM (inactive); the IC50 under setting [2] is > 95 µM; the IC50 under setting [3] was > 95 µM.
For the molecule `CCOC(=O)C1CCN(S(=O)(=O)c2ccc3c(c2)CCN3C(=O)C2CCC2)CC1`, the IC50 (AlphaScreen, mean of runs) is > 100 µM (inactive); the IC50 under setting [1] was > 100 µM; the IC50 (FP, mean of runs) was > 95 µM (inactive); the half-maximal inhibitory concentration (IC50) under setting [2] is > 95 µM; the IC50 under setting [3] was > 95 µM.
Take `Cc1cc(C)n2c(Nc3ccc4c(c3)OCCO4)c(-c3ccccn3)nc2n1`: the IC50 was > 100 µM (inactive) (AlphaScreen, mean of runs); > 100 µM under setting [1]; > 95 µM (inactive) (FP, mean of runs); > 95 µM under setting [2]; > 95 µM under setting [3].
As to `CCOC(=O)Cc1ccc(NS(=O)(=O)c2ccc(SC)cc2)cc1`, the IC50 (AlphaScreen, mean of runs) is > 100 µM (inactive); the half-inhibitory concentration (IC50) under setting [1] is > 100 µM; the IC50 (FP, mean of runs) was > 95 µM (inactive); the 50% inhibitory concentration (IC50) under setting [2] was > 95 µM; the IC50 under setting [3] was > 95 µM.
In the case of `COc1ccncc1-c1csc(C(O)c2ccccc2)n1` (stereo not given), the IC50 is, setting by setting: (AlphaScreen, mean of runs) > 100 µM (inactive); under setting [1], > 100 µM; (FP, mean of runs) > 95 µM (inactive); under setting [2], > 95 µM; under setting [3], > 95 µM.
Turning to `CCOc1cc(C(=O)NCCN2CCOCC2)cc(OCC)c1OCC`, the IC50 runs as follows: (AlphaScreen, mean of runs) > 100 µM (inactive); under setting [1], > 100 µM; (FP, mean of runs) > 95 µM (inactive); under setting [2], > 95 µM; under setting [3], > 95 µM.
Consider `C=C1CCN([C@@H](CC(C)C)C(=O)NCCC(C)C)S(=O)(=O)c2ccccc21`, for which the IC50 by setting is: (AlphaScreen, mean of runs) > 100 µM (inactive); under setting [1], > 100 µM; (FP, mean of runs) > 95 µM (inactive); under setting [2], > 95 µM; under setting [3], > 95 µM.
